Tests used:
[1] = target: T1, CAT I V28W mutant (Escherichia coli, UniProt P62577, C126A/C196A/C212A/C31A/C91A/V28W); details: chloramphenicol 10 μM; CAT I V28W and fluorescein-linked chloramphenicol fixed at 0.15 μM; excitation 494 nm
Procedure: Fluorescence measurements were performed on a Perkin Elmer LS 50B spectrofluorometer with the excitation wavelength set at 494 nm and the excitation and emission slit width set at 5 nm.

[2] = target: T1, CAT I V28W mutant; test: Fluorescence response of fluorescein-linked chloramphenicol to CAT I V28W mutant; type: binding, E. coli; parameters: His6 (N); made in house; host or cells: E. coli BL21 (DE3); details: 0.15 μM fluorescein-linked chloramphenicol, 1.5 μM CAT I V28W (FIG. 6); excitation 494 nm, slit width 5 nm
Excerpt: The excitation wavelength is 494 nm and the slit width is 5 nm.

**Q.** `O=C(N[C@H](CO)[C@H](O)c1ccc([N+](=O)[O-])cc1)C(Cl)Cl` [chloramphenicol] was tested. Which increase in fluorescence [1] did it give?
**A.** The increase in fluorescence was roughly 10%.

**Q.** For `O=C(CCCCCNC(=S)Nc1ccc(-c2c3ccc(=O)cc-3oc3cc(O)ccc23)c(C(=O)O)c1)N[C@H](CO)[C@H](O)c1ccc([N+](=O)[O-])cc1` [fluorescein-linked chloramphenicol, 5-(3-(6-(((1R,2R)-1,3-dihydroxy-1-(4-nitrophenyl)propan-2-yl)amino)-6-oxohexyl)thioureido)-2-(6-hydroxy-3-oxo-3H-xanthen-9-yl)benzoic acid], which “fluorescence of fluorescein-linked chloramphenicol in the presence of CAT I V28W mutant” value [2] is on record?
**A.** The value was “significantly reduced”.

From patent US8329425B2, “Method and system for detection of chloramphenicol” (priority 2011, dated 2012)
